# Biological target: T1, murine IP10-AP (IP-10 alkaline phosphatase fusion protein) (UniProt P05187+P17515)
# T1 construct: made in house; host or cells: NIH-3T3 clone 18.G5 (conditioned medium)
# Assay: glycosaminoglycan inhibition of IP10-AP binding to A20 B cells
# Conditions: 15 nM mIP10-AP, 2 hours on ice; for inhibition of IP10-AP binding: at a concentration 100× below 1 mg/ml
# Procedure: 107 A20 cells were incubated with 15 nM mIP10-AP in the presence of the indicated concentrations of heparin (H), heparan sulfate (HS), chondroitin sulfate B (CSB) and chondroitin sulfate A (CSA) for 2 hours on ice. Cells were then washed and bound IP10-AP assayed.
# Binding Assays. For non-adherent cells, […] were washed 1× with ice-cold binding buffer (HBSS/10 mM Hepes/0.1% ETSA) and resuspended in the indicated concentration of IP10-AP and competitors in a total of […] ice-cold binding buffer. Binding was carried out for 2 hrs on ice with occasional mixing. Cells were washed 5× with ice cold binding buffer by repeated centrifugation at 4° C. Cell bound AP activity was determined by lysing cells in […] 10 mM Tris (pH 8.0)/1% Triton X-100, heating at 65° C. for 10 min to inactivate cellular alkaline phosphatase, and then centrifuging at 14,000×g for 10 min. 50 ml of the soluble lysate was then mixed with 50 ml 2× SEAP buffer in a 96 well plate at room temperature and the colormetric product was assayed in a kinetic plate reader at A405. For adherent cells with higher numbers of binding sites, binding was determined in 6 well cluster plates. Cells were washed 2× with ice-cold binding buffer and incubated with the indicated concentration of IP10-AP and competitor in a total of 500 ml of ice-cold binding buffer for 2 hrs in the cold room on a rocker platform. […] Non-specific binding was determined in one of two ways. For the calculation of the equilibrium constant, non-specific binding was determined by adding […] at each concentration of IP10-AP and performing the binding experiments in parallel exactly as described above. Specific binding was determined by subtracting background from total binding. Specific binding data was analyzed with the binding equation B=(Bmax×F)/(Kd+F) (where B is bound ligand and F is free ligand) (28) using the program KaleidaGraph on a Macintosh computer. […] 125I-IP10 binding to cells was performed essentially as described above for IP10-AP binding except the cell pellet with bound IP-10 was counted in a gamma-counter. […]
# T1 sequence (P17515+P05187 fused): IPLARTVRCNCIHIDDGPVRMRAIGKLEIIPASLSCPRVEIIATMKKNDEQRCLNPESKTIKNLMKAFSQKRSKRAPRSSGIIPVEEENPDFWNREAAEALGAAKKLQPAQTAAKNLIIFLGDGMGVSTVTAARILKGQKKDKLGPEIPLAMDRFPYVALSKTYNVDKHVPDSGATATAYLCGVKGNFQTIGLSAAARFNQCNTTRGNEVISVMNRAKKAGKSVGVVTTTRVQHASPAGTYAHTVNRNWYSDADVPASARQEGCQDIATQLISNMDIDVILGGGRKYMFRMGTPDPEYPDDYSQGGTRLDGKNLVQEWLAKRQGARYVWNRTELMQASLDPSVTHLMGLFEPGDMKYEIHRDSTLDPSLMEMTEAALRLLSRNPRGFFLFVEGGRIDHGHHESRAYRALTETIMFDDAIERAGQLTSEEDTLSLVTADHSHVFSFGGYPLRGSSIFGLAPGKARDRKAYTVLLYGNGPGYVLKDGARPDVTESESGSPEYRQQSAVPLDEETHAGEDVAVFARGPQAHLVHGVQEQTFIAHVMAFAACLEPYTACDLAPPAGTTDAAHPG
Substance,inhibition of IP10-AP binding,effect on IP10-AP binding (1 mg/ml)
heparan sulfate,complete inhibition,–
heparin,complete inhibition,–
chondroitin sulfate A,–,no effect

# From patent US5824299A, “Modulation of endothelial cell proliferation with IP-10” (President & Fellows of Harvard College, priority 1995, dated 1998)
